Measurements from PMC6857051, “Proliferative regulation of alveolar epithelial type 2 progenitor cells by human Scnn1d gene” (Theranostics, 2019).

Key:
[1] = target: ENaC activity in mouse tracheal epithelial (MTE) monolayers, control; test: Ussing chamber short-circuit current, control MTE monolayers (uninduced δ802Tg); type: cell-based
[2] = tested on: ENaC activity in mouse AT2 monolayers; test: Ussing chamber short-circuit current, mAT2 monolayers; type: cell-based; conditions: mAT2 (and MTE) monolayers, Isc, Figure 5D
Experimental: Mouse AT2 cell isolation and monolayer cultures. Mouse AT2 cells were isolated from both wt and Scnn1d Tg/Cre strains with C57BL/6 genetic background with a modified protocol of a previous publication, [72]. Briefly, lungs of euthanized mice were removed and incubated in dispase for 45 minutes, and then were gently teased and incubated in DMEM/F-12 + 0.01% DNase I for 10 minutes. Cells were passed through a serial of Nitex filters (100, 40, 30, and 10 microns; Corning, USA) and centrifuged at 300 × g for 10 minutes. Resuspended cells were incubated with biotin conjugated anti-CD16/32, CD45 and CD119 antibodies (BD Pharmingen, USA) and then incubated with streptavidin-coated magnetic particles. The cells were then incubated for 2 h at 37 °C in a plastic culture dish precoated with mouse IgG to remove fibroblasts. Upon passing the request for both viability (> 90%) and purity assays (> 94%) (Figures S7 & S8), mouse laminin 1 precoated transwells (Corning Costar, USA) were seeded with AT2 cells (10^6 cells/cm^2). […] Transepithelial resistance (RT) and potential difference (ET) were measured with an epithelial voltohmmeter (World Precision Instrument, USA). IEQ values were calculated as the ratio of ET / RT values. […] The transmonolayer potential was short circuited to 0 mV, and Isc level was measured with an epithelial voltage clamp (VCC-MC8, Physiologic Instruments). […]

[3] = target: ENaC activity in δ802-ENaC expressing mouse tracheal epithelial (MTE) monolayers; test: Ussing chamber short-circuit current, δ-ENaC MTE monolayers (induced δ802Tg/Cre); type: cell-based
[4] = tested on: alveolar fluid clearance in human lungs; test: Alveolar fluid clearance in human lungs ex vivo; conditions: n=5 per group, 60 minutes after instillation
From the text: Alveolar fluid clearance in human lungs ex vivo. The studies followed the guide of the […] and were approved by the Ethics Committee of the China Medical University (CMU) at Shenyang, China. All patients were given oral and written informed consent forms. Human lung tissues were obtained during pulmonary resection surgeries with lung cancer at the First Affiliated Hospital of CMU. There were no fibrous or emphysematous lesions as assessed by preoperative chest CT scanning. Human lung segments were prepared, and AFC measurements were done as described previously. Briefly, the segmental bronchus was occluded by a 10-Fr. balloon catheter immediately after removal of the lung, and occluded segments that were located furthest away from the focus of tumor were chosen. A warmed physiologic saline solution (20 ml; 37°C) containing 5% BSA with or without amiloride (1 mM) was instilled into the distal air spaces through the catheter. After instillation, the lungs were inflated with 100% oxygen at an airway pressure of 7 cm H2O. Alveolar fluid was aspirated 60 minutes after instillation. […] AFC values were calculated as follows: AFC = [(Vi - Vf)/Vi] × 100, where V is the volume of the instilled albumin solution (i) and the final alveolar fluid (f). […]

[5] = tested on: δ802- and γ-ENaC subunits; test: Immunoblot of cleavage of tagged δ802- and γ-ENaC subunits in oocytes by serine proteases; type: biochemical, human; conditions: 10 μg/ml, 45 minutes at room temperature
Experimental: Figure 3 Activation of δ802-containing ENaC channels by serine proteases. (A) Activation of δ802βγ ENaC expressed in Xenopus oocytes by two-chain urokinase plasminogen activator (tc-uPA). ENaC activity was measured at the membrane potential of -100 mV at defined time points post incubation with 10 μg/ml tc-uPA. n = 9-15. mean ± s.e.m. * P<0.05 vs data at the zero minute (min). (B) Time course of stimulatory effects of plasmin on δ802βγ-ENaC activity. n=12. * P<0.05. (C) Identification of subunit responsible for plasmin activation. Fold of amiloride-sensitive current (ASI) of ENaC-associated current in the presence of plasmin over that in the absence of plasmin was computed for oocytes expressing δ802+β+γ (δβγ), δ802 alone (δ), δ802+β(δβ), and δ802+γ (δγ). n = 12-15. * P<0.05. (D) Inhibitory effects of α-13 peptide on δ802αβγ- (δαβγ) and αβγ-ENaC activity post treatment of plasmin and aprotinin. Currents (I) at -100 mV were compared in the absence of amiloride (basal, open bar), presence of α-13 peptide (α13, closed bar), and amiloride (amil, grey bar). n=5. * P<0.05 vs basal currents, & P < 0.05 vs those in the presence of α-13 peptide. (E) Fractions of α-13 sensitive currents in cells pre-treated with plasmin and aprotinin. n=8. Control, without pre-treatment. (F) Cleavage of V5-tagged δ802- and γ-ENaC subunits by serine proteases. NI, non-injected oocytes as negative controls for ENaC expression. Oocytes incubated with chymotrypsin (CT, 10 μg/ml), plasmin (PI, 10 μg/ml) for 45 minutes at room temperature. Cells treated with the same volume of saline (‑) were controls for serine proteases.

[6] = α-13 300 μM apical, MTE monolayers, n=6

**Q.** With `N=C(N)NC(=O)c1nc(Cl)c(N)nc1N` [amiloride] as the molecule, how does the Ki ([1]; Isc, Ussing chamber, amiloride 1 - 1,000 μM, n=5, read-out: ki value (logistic function), control MTE monolayers (converted)) read?
**A.** 680 nM

**Q.** What about the “apparent ki value of amiloride, controls versus δ802-expressing cells” value [2] of the same molecule?
**A.** much lesser in controls

**Q.** And the Ki ([3]; Isc, Ussing chamber, amiloride 1 - 1,000 μM, n=5, read-out: ki value (logistic function), δ-ENaC MTE monolayers (converted))?
**A.** 3.04 ± 0.26 µM

**Q.** How did the “fraction of total alveolar fluid clearance inhibited” value [4] turn out when Ac-LRGTLPHPLQRLR-NH2 [α-13 peptide] was run?
**A.** Approximately half

**Q.** And the “α-13 peptide-inhibitable fraction of Isc, control cells” value [1, 6]?
**A.** 96%

**Q.** What about the “α-13 peptide-inhibitable fraction of Isc, δ802-ENaC cells” value [3, 6] of the same molecule?
**A.** 52%

B1: plasmin: serine protease of the plasmin(ogen) signal pathway for fibrinolysis (protein, UniProt P00747 20-580; P00747 581-810, looked up)
Plasmin heavy chain A: EPLDDYVNTQGASLFSVTKKQLGAGSIEECAAKCEEDEEFTCRAFQYHSKEQQCVIMAENRKSSIIIRMRDVVLFEKKVYLSECKTGNGKNYRGTMSKTKNGITCQKWSSTSPHRPRFSPATHPSEGLEENYCRNPDNDPQGPWCYTTDPEKRYDYCDILECEEECMHCSGENYDGKISKTMSGLECQAWDSQSPHAHGYIPSKFPNKNLKKNYCRNPDRELRPWCFTTDPNKRWELCDIPRCTTPPPSSGPTYQCLKGTGENYRGNVAVTVSGHTCQHWSAQTPHTHNRTPENFPCKNLDENYCRNPDGKRAPWCHTTNSQVRWEYCKIPSCDSSPVSTEQLAPTAPPELTPVVQDCYHGDGQSYRGTSSTTTTGKKCQSWSSMTPHRHQKTPENYPNAGLTMNYCRNPDADKGPWCFTTDPSVRWEYCNLKKCSGTEASVVAPPPVVLLPDVETPSEEDCMFGNGKGYRGKRATTVTGTPCQDWAAQEPHRHSIFTPETNPRAGLEKNYCRNPDGDVGGPWCYTTNPRKLYDYCDVPQCAAPSFDCGKPQVEPKKCPGR
Plasmin light chain B: VVGGCVAHPHSWPWQVSLRTRFGMHFCGGTLISPEWVLTAAHCLEKSPRPSSYKVILGAHQEVNLEPHVQEIEVSRLFLEPTRKDIALLKLSSPAVITDKVIPACLPSPNYVVADRTECFITGWGETQGTFGAGLLKEAQLPVIENKVCNRYEFLNGRVQSTELCAGHLAGGTDSCQGDSGGPLVCFEKDKYILQGVTSWGLGCARPNKPGVYVRVSRFVTWIEGVMRNN
modifications: Plasmin
notes: serine protease of the plasmin(ogen) signal pathway for fibrinolysis
**Q.** What does the source list for B1?
**A.** cleavage of γ-ENaC [5]: catalyzed; cleavage of δ802 subunit [5]: Neither chymotrypsin nor plasmin nor endogenous furin cleaved the δ802 subunit
